The target of this test is Xanthine oxidase (from bovine milk, Sigma) (Bos taurus (Bovine), UniProt P80457). Description: Xanthine oxidase inhibitory activity. Conditions: absorbance at 290 nm. It counts as biochemical. As to the method:
(1) Preparation of Test Compounds
Test compounds were dissolved in DMSO (Wako) at 40 mM concentration and then diluted to intended concentrations with phosphate-buffered saline (PBS).
(2) Method for Measurement
Xanthine oxidase (from bovine milk, Sigma) was prepared with phosphate-buffered saline (PBS) at 0.02 units/mL, and then the solution was added to 96 well plates at 50 μL/well. In addition, test compounds diluted with PBS were added at 50 μL/well. Xanthine (Wako) at 200 μM prepared with PBS was added at 100 μL/well, and the reaction was conducted for 10 minutes at room temperature. Absorbance at 290 nm was measured using a microplate reader SpectraMax Plus 384 (Molecular device). The absorbance under a condition without xanthine is 0%, and control without test compounds is 100%. Fifty % inhibitory concentration of a test compound (IC50) was calculated (Tables 91 to 92). Ex. No in the table indicates Example number.

[1] abbreviates: 0.02 units/mL, xanthine 200 μM, 10 minutes at room temperature.

SMILES strings stand for the structures.

Xanthine oxidase (from bovine milk, Sigma), sequence (P80457 whole entry): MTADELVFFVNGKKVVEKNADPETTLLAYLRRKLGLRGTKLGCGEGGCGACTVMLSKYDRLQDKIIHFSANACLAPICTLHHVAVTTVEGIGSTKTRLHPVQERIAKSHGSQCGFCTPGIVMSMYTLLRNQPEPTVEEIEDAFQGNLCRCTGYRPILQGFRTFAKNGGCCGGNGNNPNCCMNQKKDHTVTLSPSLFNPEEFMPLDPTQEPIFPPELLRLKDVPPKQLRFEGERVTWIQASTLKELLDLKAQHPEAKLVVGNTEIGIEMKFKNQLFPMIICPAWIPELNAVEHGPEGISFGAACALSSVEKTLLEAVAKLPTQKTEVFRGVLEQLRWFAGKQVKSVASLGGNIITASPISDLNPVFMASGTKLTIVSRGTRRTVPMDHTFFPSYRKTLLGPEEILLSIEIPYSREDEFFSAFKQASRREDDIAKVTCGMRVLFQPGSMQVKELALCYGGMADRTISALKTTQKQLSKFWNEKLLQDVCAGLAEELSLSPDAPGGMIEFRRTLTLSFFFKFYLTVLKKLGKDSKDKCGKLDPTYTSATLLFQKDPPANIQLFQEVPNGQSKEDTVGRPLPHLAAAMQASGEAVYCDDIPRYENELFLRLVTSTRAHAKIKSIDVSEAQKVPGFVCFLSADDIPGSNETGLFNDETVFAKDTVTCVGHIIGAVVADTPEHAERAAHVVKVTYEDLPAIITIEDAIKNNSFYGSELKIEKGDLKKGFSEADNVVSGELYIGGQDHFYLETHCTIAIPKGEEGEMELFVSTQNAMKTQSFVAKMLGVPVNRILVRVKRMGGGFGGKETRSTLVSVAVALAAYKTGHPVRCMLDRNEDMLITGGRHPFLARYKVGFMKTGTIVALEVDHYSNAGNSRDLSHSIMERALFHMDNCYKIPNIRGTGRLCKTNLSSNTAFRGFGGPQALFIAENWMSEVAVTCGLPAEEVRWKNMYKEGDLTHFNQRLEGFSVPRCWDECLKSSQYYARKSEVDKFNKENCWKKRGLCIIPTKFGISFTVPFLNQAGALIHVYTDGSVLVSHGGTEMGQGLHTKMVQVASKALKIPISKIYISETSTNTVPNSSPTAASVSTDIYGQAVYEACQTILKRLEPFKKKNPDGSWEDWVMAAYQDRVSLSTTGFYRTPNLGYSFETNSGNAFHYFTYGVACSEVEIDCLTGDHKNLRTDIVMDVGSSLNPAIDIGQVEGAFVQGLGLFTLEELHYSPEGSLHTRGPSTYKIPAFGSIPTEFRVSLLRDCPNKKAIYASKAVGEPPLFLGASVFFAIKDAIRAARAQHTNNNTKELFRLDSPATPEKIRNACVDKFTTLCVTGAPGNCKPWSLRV

One may read the IC50 as the concentration that gives 50% inhibition. A higher IC50 goes with weaker potency. With `CCCCc1cn(-c2ccc(C(=O)O)cc2)cc1C#N` [Example 240], the IC50 under setting [1] came out at 3.3 nM.

Regarding `COc1ccc2ccccc2c1-c1cn(-c2ccc(C(=O)O)c(O)c2)cc1C#N` [Example 286], half-maximal inhibition (100 μM xanthine final) (IC50) required 27.5 nM.

Turning to `N#Cc1cn(-c2ccc(C(=O)O)cc2)cc1-c1ccccc1OCCCCO` [Example 199], 19.2 nM corresponded to half-maximal inhibition under setting [1] (IC50).

Turning to `COc1ccccc1-c1cn(-c2cc(C(=O)O)ccn2)cc1C#N` [Example 366], the IC50 (100 μM xanthine final) is 29.3 nM.

`N#Cc1cn(-c2ccc(C(=O)O)cc2)cc1C(=O)N1CCCCC1` [Example 231]: under setting [1], half-maximal inhibition (IC50) required 7 nM.

As to `N#Cc1cn(-c2ccc(C(=O)O)cc2)cc1-c1ccc(C(=O)O)cc1` [Example 210], the IC50 under setting [1] was found to be 5.1 nM.

Turning to `N#Cc1cn(-c2cc(C(=O)O)ccn2)cc1-c1cccs1` [Example 360], the IC50 (100 μM xanthine final) came out at 145 nM.

`COCCOc1ccccc1-c1cn(-c2ccc(C(=O)O)cc2)cc1C#N` [Example 201]: the IC50 under setting [1] worked out at 11.1 nM.

As for `N#Cc1cn(-c2ccc(C(=O)O)cc2)cc1-c1ccccc1O` [Example 146], the 50% inhibitory concentration (IC50) under setting [1] turned out to be 4 nM.

The compound `CCOc1cccc(-c2cn(-c3ccc(C(=O)O)c(O)c3)cc2C#N)c1` [Example 344] came in with an IC50 (100 μM xanthine final) of 13.5 nM.

Compound `N#Cc1cn(-c2cc(C(=O)O)ccn2)cc1C1=CCCCC1` [Example 370] yielded an IC50 (100 μM xanthine final) of 19.9 nM.

On to `COc1ccc(-c2cn(-c3ccc(C(=O)O)c(O)c3)cc2C#N)cc1F` [Example 268], for which the IC50 under setting [1] was 13.3 nM.

Under “100 μM xanthine final”, `CCOc1ccc(-c2cn(-c3ccc(C(=O)O)c(O)c3)cc2C#N)cc1` [Example 340] showed an IC50 of 5.8 nM.

As to `CNC(=O)c1cn(-c2ccc(C(=O)O)cc2)cc1C#N` [Example 225], the IC50 under setting [1] came out at 7.2 nM.

Compound `COc1cn(-c2ccc(C(=O)O)cc2)cc1C#N` [Example 220] displayed an IC50 under setting [1] of 11.1 nM.

Compound `N#Cc1cn(-c2ccc(C(=O)O)c(O)c2)cc1-c1cccc2c1OCO2` [Example 322] displayed an IC50 (100 μM xanthine final) of 6.5 nM.

Regarding `N#Cc1cn(-c2ccc(C(=O)O)cc2)cc1-c1cccc(-c2ccccc2)c1` [Example 162], inhibition under setting [1] was half-maximal at 55.1 nM (IC50).

For the compound `N#Cc1cn(-c2ccc(C(=O)O)cc2)cc1-c1ccc(-c2ccccc2)cc1` [Example 163], the IC50 under setting [1] turned out to be 41.7 nM.

Take `N#Cc1cn(-c2ccc(C(=O)O)cc2)cc1-c1cccc(OCCCO)c1` [Example 150]: it took 5 nM to reach half-maximal inhibition under setting [1] (IC50).

`N#Cc1nn(-c2ccc(C(=O)O)cc2)cc1-c1ccc2c(c1)OCO2` [Example 249] displayed an IC50 under setting [1] of 9.4 nM.

The compound `CCCOc1cccc(-c2cn(-c3ccc(C(=O)O)c(O)c3)cc2C#N)c1` [Example 341] registered an IC50 (100 μM xanthine final) of 10 nM.

On to `COc1cccc(-c2cn(-c3ccc(C(=O)O)c(O)c3)cc2C#N)c1` [Example 279], for which the IC50 (100 μM xanthine final) came to 8.4 nM.

On to `N#Cc1cn(-c2ccc(C(=O)O)cc2)cc1-c1ccccc1OCc1ccc(F)cc1` [Example 172], for which the IC50 under setting [1] was 49.1 nM.

`N#Cc1cn(-c2ccc(C(=O)O)c(O)c2)cc1-c1ccc2c(c1)OCO2` [Example 321] showed an IC50 (100 μM xanthine final) of 10.9 nM.

Where the note is “100 μM xanthine final”, `O=C(O)c1ccc(-n2ccc([N+](=O)[O-])c2)cc1O` [Example 351] returned an IC50 of 14.7 nM.

Regarding `N#Cc1cn(-c2ccc(C(=O)O)c(O)c2)cc1-c1cc2ccccc2s1` [Example 289], 22.6 nM corresponded to half-maximal inhibition (100 μM xanthine final) (IC50).

With `N#Cc1cn(-c2ccc(C(=O)O)c(O)c2)cc1-c1ccccc1F` [Example 319], 8.1 nM corresponded to half-maximal inhibition (100 μM xanthine final) (IC50).

With `N#Cc1cn(-c2ccc(C(=O)O)c(O)c2)cc1-c1ccc(Cl)cc1` [Example 315], where the note is “100 μM xanthine final”, 14.6 nM corresponded to half-maximal inhibition (IC50).

Under setting [1], `CC(C)n1cc(-c2cn(-c3ccc(C(=O)O)cc3)cc2C#N)c2ccccc21` [Example 252] displayed an IC50 of 33.2 nM.

Take `CSc1ccccc1-c1cn(-c2ccc(C(=O)O)c(O)c2)cc1C#N` [Example 349]: under “100 μM xanthine final”, the IC50 amounted to 6.4 nM.

Under setting [1], `COc1cccc(COc2cccc(-c3cn(-c4ccc(C(=O)O)cc4)cc3C#N)c2)c1` [Example 198] showed an IC50 of 111 nM.

For `N#Cc1cn(-c2ccc(C(=O)O)cc2)cc1-c1cccc(C(=O)O)c1` [Example 217], the IC50 under setting [1] stood at 5 nM.

Turning to `N#Cc1cn(-c2ccc(C(=O)O)c(O)c2)cc1-c1cccc(O)c1` [Example 338], the IC50 (100 μM xanthine final) is 5.7 nM.

On to `COc1ccccc1CCc1cn(-c2ccc(C(=O)O)c(O)c2)cc1C#N` [Example 294], for which, for the setting “100 μM xanthine final”, the midpoint of inhibition, the IC50, lay at 11.2 nM.

`N#Cc1cn(-c2ccc(C(=O)O)c(O)c2)cc1-c1ccccc1-c1ccccc1` [Example 328] came in with an IC50 (100 μM xanthine final) of 9.3 nM.

`N#Cc1cn(-c2ccc(C(=O)O)cc2)cc1-c1ccc(Oc2ccccc2)cc1` [Example 166] yielded an IC50 under setting [1] of 52.2 nM.

`N#Cc1cn(-c2ccc(C(=O)O)c(O)c2)cc1-c1ccccc1OCc1ccccc1` [Example 332] came in with an IC50 (100 μM xanthine final) of 51.5 nM.

Under setting [1], `N#Cc1cn(-c2ccc(C(=O)O)cc2F)cc1-c1ccccc1` [Example 203] displayed an IC50 of 6.6 nM.

For `N#Cc1cn(-c2ccc(C(=O)O)cc2)cc1-c1ccc(OCc2ccccc2)cc1` [Example 157], under setting [1], the IC50 was 33.8 nM.

As for `Cc1cn(-c2ccc(C(=O)O)cc2)cc1C#N` [Example 236], it took 81.2 nM to reach half-maximal inhibition under setting [1] (IC50).

With `CN(C)/C=N/c1nn(-c2ccc(C(=O)O)cc2)cc1C#N` [Example 261], under setting [1], the IC50 worked out at 5.3 nM.

With `N#Cc1cn(-c2ccc(C(=O)O)c(O)c2)cc1-c1cccc(Cl)c1` [Example 278], for the setting “100 μM xanthine final”, the IC50 was determined as 49.1 nM.

On to `N#Cc1cn(-c2ccc(C(=O)O)c(O)c2)cc1C(=O)O` [Example 299], for which it took 7.9 nM to reach half-maximal inhibition (100 μM xanthine final) (IC50).

`N#Cc1cn(-c2ccc(C(=O)O)cc2)cc1-c1cccc2c1OC(F)(F)O2` [Example 254] had an IC50 under setting [1] of 6.9 nM.

The compound `CN(C)C(=O)c1cn(-c2ccc(C(=O)O)cc2)cc1C#N` [Example 226] gave an IC50 under setting [1] of 19.7 nM.

Turning to `COCCNC(=O)c1cn(-c2ccc(C(=O)O)cc2)cc1C#N` [Example 229], the IC50 under setting [1] was 7.2 nM.

`N#Cc1cn(-c2ccc(C(=O)O)cc2)cc1-c1cccc(OCc2cccc(Cl)c2)c1` [Example 193] yielded an IC50 under setting [1] of 70.4 nM.

In turn, `N#Cc1cn(-c2ccc(C(=O)O)c(O)c2)cc1-c1ccc(F)cc1` [Example 320] displayed an IC50 (100 μM xanthine final) of 10.6 nM.

The compound `N#Cc1cn(-c2ccc(C(=O)O)c(O)c2)cc1-c1cc2ccccc2o1` [Example 290] showed an IC50 (100 μM xanthine final) of 27.6 nM.

Consider `N#Cc1cn(-c2ccc(C(=O)O)c(O)c2)cc1-c1cc(F)ccc1F` [Example 277], for which 10.1 nM corresponded to half-maximal inhibition (100 μM xanthine final) (IC50).

`Cc1cccc(-c2cn(-c3ccc(C(=O)O)c(O)c3)cc2C#N)c1` [Example 280] came in with an IC50 (100 μM xanthine final) of 15.6 nM.

Compound `CC(C)Oc1ccc(-c2cn(-c3ccc(C(=O)O)c(O)c3)cc2C#N)cc1` [Example 346] came in with an IC50 (100 μM xanthine final) of 16.8 nM.

With `N#Cc1cn(-c2ccc(C(=O)O)c(O)c2)cc1Cc1ccccc1` [Example 357], for the setting “100 μM xanthine final”, the IC50 is 5.9 nM.

`N#Cc1cn(-c2ccc(C(=O)O)cc2)cc1-c1cccc(OCc2ccccc2F)c1` [Example 189] registered an IC50 under setting [1] of 63.4 nM.

Under setting [1], `CCOCCOc1cccc(-c2cn(-c3ccc(C(=O)O)cc3)cc2C#N)c1` [Example 215] showed an IC50 of 6.7 nM.

Compound `N#Cc1cn(-c2ccc(C(=O)O)cc2)cc1CCc1ccco1` [Example 258] displayed an IC50 under setting [1] of 3.9 nM.

Turning to `COCOc1ccccc1-c1cn(-c2ccc(C(=O)O)cc2)cc1C#N` [Example 143], under setting [1], inhibition was half-maximal at 4.6 nM (IC50).

In the case of `N#Cc1cn(-c2ccc(C(=O)O)cc2)cc1-c1ccccc1OCc1ccccc1F` [Example 170], half-maximal inhibition under setting [1] (IC50) was put at 37.5 nM.

For the setting “100 μM xanthine final”, `COc1ccc(CCc2cn(-c3ccc(C(=O)O)c(O)c3)cc2C#N)cc1` [Example 296] showed an IC50 of 5.6 nM.

For `COc1cccc(COc2ccccc2-c2cn(-c3ccc(C(=O)O)cc3)cc2C#N)c1` [Example 184], under setting [1], the IC50 was 71.9 nM.

Compound `N#Cc1cn(-c2ccc(C(=O)O)cc2)cc1/C=C/c1ccccc1` [Example 206] showed an IC50 under setting [1] of 7.1 nM.

Take `Cc1cccc(-c2cn(-c3cc(C(=O)O)ccn3)cc2C#N)c1` [Example 362]: the midpoint of inhibition (100 μM xanthine final), the IC50, lay at 25.6 nM.

`N#Cc1cn(-c2ccc(C(=O)O)cc2)nc1OCc1ccccc1` [Example 7, 4-(3-Benzyloxy-4-cyanopyrazole-1-yl)benzoic acid]: under setting [1], the IC50 is 5.8 nM.

For `CCCc1cn(-c2ccc(C(=O)O)cc2)cc1C#N` [Example 238], under setting [1], the midpoint of inhibition, the IC50, lay at 3.6 nM.

The compound `N#Cc1cn(-c2ccc(C(=O)O)cc2)cc1COCc1ccccc1` [Example 248] registered an IC50 under setting [1] of 11.9 nM.

The compound `N#Cc1cn(-c2ccc(C(=O)O)cc2)cc1-c1ccccc1OCc1ccsc1` [Example 176] showed a 50% inhibitory concentration (IC50) under setting [1] of 13.7 nM.

Under setting [1], `N#Cc1cn(-c2ccc(C(=O)O)cc2)nc1NC(=O)Cc1ccccc1` [Example 263] returned an IC50 of 4.6 nM.

As for `N#Cc1cn(-c2ccc(C(=O)O)c(O)c2)cc1-c1cccc(F)c1` [Example 265], it took 7.3 nM to reach half-maximal inhibition under setting [1] (IC50).

Regarding `N#Cc1cn(-c2ccc(C(=O)O)cc2)cc1-c1ccccc1Oc1ccccc1` [Example 164], half-maximal inhibition under setting [1] (IC50) required 33.2 nM.

Regarding `N#Cc1cn(-c2ccc(C(=O)O)cc2)cc1-c1cccc(OCc2cccs2)c1` [Example 173], under setting [1], the IC50 was found to be 41.4 nM.

In the case of `Cc1ccc(-c2cn(-c3ccc(C(=O)O)c(O)c3)cc2C#N)s1` [Example 310], the IC50 (100 μM xanthine final) amounted to 17.5 nM.

For the setting “100 μM xanthine final”, `Cn1cc(-c2cn(-c3ccc(C(=O)O)c(O)c3)cc2C#N)c2ccccc21` [Example 292] came in with an IC50 of 5.2 nM.

Under setting [1], `N#Cc1cn(-c2ccc(C(=O)O)cc2)cc1-c1cccc(O)c1` [Example 147] had an IC50 of 2.1 nM.

The compound `CCOc1cn(-c2ccc(C(=O)O)cc2)cc1C#N` [Example 257] returned an IC50 under setting [1] of 4.1 nM.

In the case of `CN(Cc1ccccc1)C(=O)c1cn(-c2ccc(C(=O)O)cc2)cc1C#N` [Example 228], the IC50 under setting [1] was found to be 4.6 nM.

The compound `COCCOc1ccc(-c2cn(-c3ccc(C(=O)O)c(O)c3)cc2C#N)cc1` [Example 347] gave an IC50 (100 μM xanthine final) of 12.2 nM.

These data come from patent publication US9023882B2, “5-membered nitrogen containing heterocyclic derivatives and pharmaceutical compositions comprising the same” (Kissei Pharmaceutical Co., Ltd., priority 2007, dated 2015).
